Experimental data from publication PMC3110009 (ACS medicinal chemistry letters, 2011).

Key:
[1] = target: dopamine D2 receptor (D2^high / D2^low) (Rattus norvegicus, UniProt P61169); assay type: binding
[2] = target: dopamine D3 receptor (human D3 clone) (Homo sapiens, UniProt P35462); assay: Competitive binding at human D3 clone, [3H]domperidone
Sequence of dopamine D3 receptor (human D3 clone) (P35462 whole entry): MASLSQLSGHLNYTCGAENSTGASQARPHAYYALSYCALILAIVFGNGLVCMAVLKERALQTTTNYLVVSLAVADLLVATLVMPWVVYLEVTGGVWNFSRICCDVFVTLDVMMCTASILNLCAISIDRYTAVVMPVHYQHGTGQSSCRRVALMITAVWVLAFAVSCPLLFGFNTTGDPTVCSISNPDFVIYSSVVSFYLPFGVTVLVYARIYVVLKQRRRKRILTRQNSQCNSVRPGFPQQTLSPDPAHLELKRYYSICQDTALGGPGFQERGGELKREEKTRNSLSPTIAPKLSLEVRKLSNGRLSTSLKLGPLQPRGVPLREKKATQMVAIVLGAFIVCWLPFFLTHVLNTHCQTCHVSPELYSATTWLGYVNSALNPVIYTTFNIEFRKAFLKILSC

Sequence of dopamine D2 receptor (D2^high / D2^low) (P61169 1-415 isoform P61169-2): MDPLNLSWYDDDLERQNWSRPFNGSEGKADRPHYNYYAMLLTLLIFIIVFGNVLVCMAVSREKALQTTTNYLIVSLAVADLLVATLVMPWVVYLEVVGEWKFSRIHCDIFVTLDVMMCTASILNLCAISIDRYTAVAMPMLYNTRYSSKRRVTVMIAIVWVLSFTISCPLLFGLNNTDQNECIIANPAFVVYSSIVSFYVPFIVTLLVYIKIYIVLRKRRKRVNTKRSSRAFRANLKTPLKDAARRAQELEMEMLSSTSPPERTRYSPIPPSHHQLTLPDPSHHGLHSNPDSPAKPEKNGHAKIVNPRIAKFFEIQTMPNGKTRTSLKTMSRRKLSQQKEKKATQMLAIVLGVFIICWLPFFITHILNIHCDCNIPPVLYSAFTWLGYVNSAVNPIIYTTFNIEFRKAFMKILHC

CCN1CCc2cc(OCCCF)cc3c2[C@H]1Cc1ccc(O)c(O)c1-3 [Compound 8c, N-ethyl-2-fluoropropanoxy catechol-aporphine]
fold increase in D2^high affinity ([1]; in comparison to 8a): ~4 fold

CN1CCc2cc(OCCCF)cc3c2[C@H]1Cc1ccc(O)c(O)c1-3 [Compound 8e]
Ki D3^high ([2]; high affinity state of D3): did not exhibit any D3^high affinity

CN1CCc2cc(OCCF)cc3c2[C@H]1Cc1ccc(O)c(O)c1-3 [Compound 8f]
Ki D3 [3H]domperidone ([2]; human D3 clone, SD): no appreciable affinity to D3

CCN1CCc2cc(OCCF)cc3c2[C@H]1Cc1ccc(O)c(O)c1-3 [Compound 8d]
fold improvement in D2^high binding affinity ([1]; 2-fluoroethoxy analog versus N-ethyl 2-fluoropropanoxy analog 8c): more than 2 fold
